From patent US11028051B2, “Tetrahydroquinoline-based bromodomain inhibitors” (St. Jude Children's Research Hospital, priority 2016, dated 2021)

How the values were obtained:
Test in all cases: competitive TR-FRET assay, BET-BD with acetylated peptide ligand
Type in all cases: binding
BRD4-BD2 = BRD4-BD2 (Homo sapiens (Human), UniProt O60885); conditions: BRD4-BD2; Table 11 additional modifications; read-out: 4.2 EC50
Protocol: (§1) Inhibitor potency was determined using a competitive TR-FRET assay as detailed herein, measuring interaction of the respective BET-BD with an acetylated peptide ligand (Table 2).

BRDT = BRDT (Homo sapiens, UniProt Q58F21); conditions: BRDT; Table 11 additional modifications; read-out: BRDT EC50
Protocol: as §1

BRD4-BD1 = BRD4-BD1 (Homo sapiens (Human), UniProt O60885); conditions: BRD4-BD1; Table 11 additional modifications; read-out: 4.1 EC50
Protocol: as §1

BRD2-BD1 = BRD2-BD1 (Homo sapiens (Human), UniProt P25440); conditions: BRD2-BD1; Table 11 additional modifications; read-out: 2.1 EC50
Protocol: as §1

BRD2-BD2 = BRD2-BD2 (Homo sapiens (Human), UniProt P25440); conditions: for EC50: BRD2-BD2, Table 11 additional modifications, read-out: 2.2 EC50; for 2.1/2.2: ratio of BRD2-BD1 EC50 to BRD2-BD2 EC50 (selectivity)
Protocol: as §1

BRD3-BD1 = BRD3-BD1 (Homo sapiens (Human), UniProt Q15059); conditions: BRD3-BD1; Table 11 additional modifications; read-out: 3.1 EC50
Protocol: as §1

Sequence of BRD2-BD1 (P25440 74-180): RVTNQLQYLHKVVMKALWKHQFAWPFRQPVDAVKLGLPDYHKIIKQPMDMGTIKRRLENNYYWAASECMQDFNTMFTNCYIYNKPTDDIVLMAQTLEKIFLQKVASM
Sequence of BRD2-BD2 (P25440 344-453): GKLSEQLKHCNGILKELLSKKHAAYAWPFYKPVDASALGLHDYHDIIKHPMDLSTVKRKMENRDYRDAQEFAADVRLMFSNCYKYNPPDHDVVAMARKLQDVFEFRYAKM
Sequence of BRD3-BD1 (Q15059 34-140): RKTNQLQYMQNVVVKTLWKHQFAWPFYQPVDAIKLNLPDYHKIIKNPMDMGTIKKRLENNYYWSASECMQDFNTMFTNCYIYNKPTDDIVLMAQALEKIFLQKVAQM

SMILES	EC50 (BRD4-BD2) [µM]	EC50 (BRDT) [µM]	EC50 (BRD4-BD1) [µM]	EC50 (BRD2-BD1) [µM]	EC50 (BRD2-BD2) [µM]	2.1/2.2 (BRD2-BD2)	EC50 (BRD3-BD1) [µM]
CC(=O)Nc1cccc(-c2ccc3c(c2)[C@H](NCc2ccccc2)C[C@H](C)N3C(C)=O)c1 [compound 63]	7.6	–	13	13	2.4	1.0	6.9
CCC(=O)N[C@@H]1C[C@H](C)N(C(C)=O)c2ccc(-c3cccc(NC(C)=O)c3)cc21 [compound 67]	11	–	60	24	18	1.4	36
CC(=O)Nc1cccc(-c2ccc3c(c2)[C@H](NC(=O)c2ccc(F)cc2)C[C@H](C)N3C(C)=O)c1 [compound 68]	20	–	80	70	10	6.9	41
CC(=O)Nc1cccc(-c2ccc3c(c2)[C@H](NC(=O)c2ccc(C(F)(F)F)cc2)C[C@H](C)N3C(C)=O)c1 [compound 69]	75	–	74	75	2.7	28	75
CC(=O)Nc1cccc(-c2ccc3c(c2)[C@H](NCCCc2ccccc2)C[C@H](C)N3C(C)=O)c1 [compound 70]	26	–	69	16	69	0.23	9.9
CC(=O)Nc1cccc(-c2ccc3c(c2)[C@H](NC(=O)c2ccc(Cl)cc2)C[C@H](C)N3C(C)=O)c1 [compound 72]	51	–	39	51	51	1.0	27
CC(=O)Nc1cccc(-c2ccc3c(c2)[C@H](NC(=O)CC(C)C)C[C@H](C)N3C(C)=O)c1 [compound 73]	19	–	33	16	83	0.20	12
CC(=O)Nc1cccc(-c2ccc3c(c2)[C@H](NC(=O)CCc2ccccc2)C[C@H](C)N3C(C)=O)c1 [compound 74]	77	–	19	11	17	0.65	9.8
CC(=O)Nc1cccc(-c2ccc3c(c2)[C@H](NCc2ccc(C(F)(F)F)cc2)C[C@H](C)N3C(C)=O)c1 [compound 75]	53	–	53	53	53	1.0	36
CC(=O)Nc1ccc(N[C@@H]2C[C@H](C)N(C(C)=O)c3ccc(-c4cccc(NC(C)=O)c4)cc32)cc1 [compound 76]	0.65	–	3.2	3.4	0.27	12	2.3
COC(=O)c1ccoc1-c1ccc2c(c1)[C@H](NC(=O)OC(C)C)C[C@H](C)N2C(C)=O [compound 82]	2	–	3.5	4	1.1	6.0	2.7
CCOC(=O)c1ccc(-c2ccc3c(c2)[C@H](NC(=O)OC(C)C)C[C@H](C)N3C(C)=O)o1 [compound 83]	3.4	–	6	7.5	1.6	1.7	4.3
CC(=O)N1c2ccc(C3=CCCO3)cc2[C@H](NC(=O)OC(C)C)C[C@@H]1C [compound 85]	12	–	8.5	13	1.2	3.6	4.8
CC(=O)Nc1cccc(-c2ccc3c(c2)[C@H](Nc2ccc(C(=O)O)cc2)C[C@H](C)N3C(C)=O)c1 [compound 120]	0.17	–	13	33	0.13	3.1	4.9

The remaining lines, values ahead:

EC50 (BRD4-BD2) [µM]	EC50 (BRDT) [µM]	EC50 (BRD4-BD1) [µM]	EC50 (BRD2-BD1) [µM]	EC50 (BRD2-BD2) [µM]	2.1/2.2 (BRD2-BD2)	EC50 (BRD3-BD1) [µM]	SMILES
0.23	5.9	0.67	0.85	0.29	2.9	0.62	CC(=O)Nc1cccc(-c2ccc3c(c2)[C@H](NC(=O)OC(C)C)C[C@H](C)N3C(C)=O)c1 [compound 1]
> 67.8	–	> 67.8	5.8	0.85	6.8	2.3	COc1cccc(-c2ccc3c(c2)[C@H](NC(=O)OC(C)C)C[C@H](C)N3C(C)=O)c1 [compound 3]
0.73	–	2.9	1.5	0.79	1.9	1.4	CC(=O)N1c2ccc(-c3ccc(N(C)C)cc3)cc2[C@H](NC(=O)OC(C)C)C[C@@H]1C [compound 57]
6.2	–	> 96	7.7	1.1	7.0	5.2	CC(=O)N1c2ccc(-c3cccc([N+](=O)[O-])c3)cc2[C@H](NC(=O)OC(C)C)C[C@@H]1C [compound 58]
2.1	–	3.5	3.6	1.2	2.9	1.9	COc1ccc(-c2ccc3c(c2)[C@H](NC(=O)OC(C)C)C[C@H](C)N3C(C)=O)cc1 [compound 59]
14	–	> 50	15	2.9	5.3	11	COc1ccccc1-c1ccc2c(c1)[C@H](NC(=O)OC(C)C)C[C@H](C)N2C(C)=O [compound 60]
14	–	11	13	2.1	6.2	8.8	CC(=O)N1c2ccc(-c3ccc(Oc4ccccc4)cc3)cc2[C@H](NC(=O)OC(C)C)C[C@@H]1C [compound 61]
41	–	77	77	77	6.0	62	CC(=O)Nc1cccc(-c2ccc3c(c2)[C@H](NC(=O)c2ccccc2)C[C@H](C)N3C(C)=O)c1 [compound 62]
10	–	7.3	8.1	2	4.1	11	CC(=O)Nc1cccc(-c2ccc3c(c2)[C@H](NC(=O)Cc2ccccc2)C[C@H](C)N3C(C)=O)c1 [compound 64]
78	–	78	71	36	2.0	77	COc1ccc(C(=O)N[C@@H]2C[C@H](C)N(C(C)=O)c3ccc(-c4cccc(NC(C)=O)c4)cc32)cc1 [compound 66]
14	–	15	16	9.7	1.6	10	CC(=O)N1c2ccc(-c3ccc4c(c3)OCCO4)cc2[C@H](NC(=O)OC(C)C)C[C@@H]1C [compound 77]
6.7	–	6.1	7.7	2.9	2.6	4	CC(=O)N1c2ccc(-c3cccc(-n4cccn4)c3)cc2[C@H](NC(=O)OC(C)C)C[C@@H]1C [compound 78]
8.8	–	8.2	7.1	2.7	2.6	2.2	CC(=O)N1c2ccc(-c3ccc4cc[nH]c4c3)cc2[C@H](NC(=O)OC(C)C)C[C@@H]1C [compound 79]
4	–	5.3	6.3	1.1	2.0	2.1	CC(=O)N1c2ccc(-c3ccc4occc(=O)c4c3)cc2[C@H](NC(=O)OC(C)C)C[C@@H]1C [compound 80]
8.1	–	6.6	8	4.7	2.7	5.9	CC(=O)N1c2ccc(-c3ccc4[nH]ccc4c3)cc2[C@H](NC(=O)OC(C)C)C[C@@H]1C [compound 81]
3.5	–	2.1	2.5	0.46	2.5	0.99	CC(=O)N1c2ccc(-c3cccc(NC(=O)OC(C)(C)C)c3)cc2[C@H](NC(=O)OC(C)C)C[C@@H]1C [compound 84]
41	–	2.5	1.8	27	4.7	1	CC(=O)N1c2ccc(-c3cc4ccccc4o3)cc2[C@H](NC(=O)OC(C)C)C[C@@H]1C [compound 86]
7.6	–	68	68	13	5.4	13	CC(=O)N1c2ccc(-c3cccn(C)c3=O)cc2[C@H](NC(=O)OC(C)C)C[C@@H]1C [compound 87]
0.65	–	2.9	2.1	0.47	11	1.4	CC(=O)N1c2ccc(-c3cccc(CN)c3)cc2[C@H](NC(=O)OC(C)C)C[C@@H]1C [compound 88]
1.7	–	1.4	1.6	0.43	0.067	0.87	CC(=O)N1c2ccc(-c3cccc(CCO)c3)cc2[C@H](NC(=O)OC(C)C)C[C@@H]1C [compound 89]
